Laboratory results reported in patent US4742045A, “Glycopeptide antibiotics” (SmithKline Beckman Corporation, priority 1986, dated 1988).
Where two headings read alike, the source gives them in different places.

How the values were obtained:
Group B Strep. = assay: MIC against an expanded panel; format: cell-based; conditions: Table 4, Group B Strep. (4 strains)
Description: (§1) The number of strains tested is shown in parentheses below each organism. The average MIC is reported in μg/ml.

Coag-neg. Staphylococci = assay: MIC against an expanded panel; format: cell-based; conditions: Table 4, Coag-neg. Staphylococci (24 strains)
Description: as §1

Viridans = assay: MIC against an expanded panel; format: cell-based; conditions: Table 4, Viridans (2 strains)
Description: as §1

Group A Strep. = assay: MIC against an expanded panel; format: cell-based; conditions: Table 4, Group A Strep. (6 strains)
Description: as §1

JK Diptheroids = assay: MIC against an expanded panel; format: cell-based; conditions: Table 4, JK Diptheroids (19 strains)
Description: as §1

STAPH. AUREUS HH 127 = assay: prophylactic activity, dosing preinfection; format: in vivo, mice; conditions: for ED50: Staphylococcus aureus, in Mus musculus
Streptococcus pyogenes = assay: standard microtiter assay, minimum inhibitory concentration; format: cell-based; conditions: Streptococcus pyogenes, read-out: minimum inhibitory concentration
Description: (§2) Representative results of standard microtiter assays are reported in Tables 1, 2 and 3 which follow, as the minimum inhibitory concentration of antibiotic (μg/ml).
(§3) In Table 1, test organisms 1-13 were different strains of Staphylococcus aureus, and 14-16 were different strains of Staphylococcus epidermidis. In Table 2, test organisms 1-5 were different strains of S. aureus; 6, 8, 12 and 14 were different strains of S. epidermidis; 7 was a Staphylococcus haemolyticus; 9 and 10 were different strains of Streptococcus faecalis; 11 was a Streptococcus pyogenes; and 13 was a Staphylococcus saprophyticus. In Table 3, test organisms 1-3 were different strains of S. aureus; 4 and 6 were different strains of S. epidermidis; 5 was a S. haemolyticus and 7 and 8 were different strains of Streptococcus faecalis. Except where individual components are indicated, the CWI-785 antibiotic employed was the CWI-785 complex; in some cases, HCl salts of the CWI-785 antibiotic were employed.

[1] = tested on: Staphylococcus haemolyticus; assay: as above; format: cell-based; conditions: Staphylococcus haemolyticus
Description: as §2, §3
(§4) In Table 5 are shown data from standard microtiter assays carried out in a presence of no serum, 50% human serum (hum.) and 50% mouse serum (mse.). The test organisms were 1: S. aureus; 2,4 and 5: different strains of S. epidermidis; 3: S. haemolyticus; 6: S. saprophyticus; 7 and 8: different strains of S. faecalis.

[2] = tested on: Staphylococcus saprophyticus; assay: as above; format: cell-based; conditions: Staphylococcus saprophyticus
Description: as §2, §3, §4

[3] = tested on: Staphylococcus epidermidis; assay: as above; format: cell-based; conditions: Staphylococcus epidermidis
Description: as §2, §3, §4

Staphylococcus aureus = assay: as above; format: cell-based
Description: as §2, §3, §1, §4

Streptococcus faecalis = assay: as above; format: cell-based
Description: as §2, §3, §1, §4

S. haemolyticus = assay: mice infected i.p., antibiotic i.v. 1 hr post infection, ED50; format: in vivo; conditions: Staphylococcus haemolyticus, 1 h
Protocol: (§5) In Table 6, below, is shown the ED50 in mg/kg of HPB4 in comparison to vancomycin and teicoplanin. Mice were injected i.p. with the indicated organism and then i.v., 1 hr post infection, with the indicated antibiotic.

S. faecalis = assay: mice infected intraperitoneally, dosed 1 hr after infection, ED50; format: in vivo; conditions: Enterococcus faecalis, 1 h
Protocol: (§6) The in vivo activity of the CWI-785 complex and its components and hydrolysis products was confirmed by administering selected CWI-785 antibiotics to mice infected with various gram-positive pathogens. In one representative assay, in which mice infected intraperitoneally with 46.8 LD50 's of S. aureus (strain 1, Tables 1 and 2) were dosed once, subcutaneously one hour after infection, the following ED50 's (mg/kg) were observed: CWI-785B: 2.4, CWI-785C: 3.1, CWI-785: 3.8, HPB3: 0.9, vancomycin: 0.7. In a second representative assay carried out as above except that mice were infected with 3.17 LD50 's of S. faecalis (strain 9, Table 2), the following ED50 's were observed: HPB3 hydrochloride: 1.6, HPB4 hydrochloride: 1.6, vancomycin: 2.2, teicoplanin: 1.3.
as §5

S. aureus = assay: as above; format: in vivo; conditions: Staphylococcus aureus, 1 h, antibiotic i.v. 1 hr post infection
Protocol: as §6, §5

CN[C@H](CC(C)C)C(=O)N[C@H]1C(=O)N[C@@H](CC(N)=O)C(=O)N[C@H]2C(=O)N[C@H]3C(=O)N[C@H](C(=O)N[C@H](C(=O)O)c4cc(O)cc(O)c4-c4cc3ccc4O)[C@H](O)c3ccc(c(Cl)c3)Oc3cc2cc(c3O[C@@H]2O[C@H](CO)[C@@H](O)[C@H](O)[C@H]2O[C@H]2C[C@](C)(N)[C@H](O)[C@H](C)O2)Oc2ccc(cc2Cl)[C@H]1O [Vancomycin, vancomycin]
1.4 mg/kg: ED50 (S. aureus; S. aureus 2620 (24 × LD50) i.p.)
0.31 mg/kg: ED50 (STAPH. AUREUS HH 127; sc)
0.8 µg/mL: MIC (Streptococcus pyogenes) | MIC (Staphylococcus aureus; Staphylococcus aureus, read-out: minimum inhibitory concentration, Table 1 test organism 13, S. aureus strain)
3.1 µg/mL: MIC50 (Coag-neg. Staphylococci; read-out: MIC50) | MIC ([1]; Table 5 organism 3 S. haemolyticus, 50% Hum. Serum) | MIC ([1]; Table 5 organism 3 S. haemolyticus, No Serum) | MIC ([1]; read-out: minimum inhibitory concentration, Table 2 test organism 7, Staphylococcus haemolyticus) | MIC ([2]; Table 5 organism 6 S. saprophyticus, 50% Hum. Serum) | MIC ([3]; Table 5 organism 2 S. epidermidis, 50% Hum. Serum) | MIC ([3]; Table 5 organism 2 S. epidermidis, 50% Mse. Serum) | MIC ([3]; Table 5 organism 4 S. epidermidis, 50% Hum. Serum) | MIC ([3]; Table 5 organism 4 S. epidermidis, 50% Mse. Serum) | MIC ([3]; Table 5 organism 5 S. epidermidis, 50% Mse. Serum) | MIC ([3]; read-out: minimum inhibitory concentration, Table 1 test organism 15, S. epidermidis strain) | MIC (Staphylococcus aureus; Staphylococcus aureus, Table 5 organism 1 S. aureus, 50% Hum. Serum) | MIC (Staphylococcus aureus; Staphylococcus aureus, read-out: minimum inhibitory concentration, Table 1 test organism 7, S. aureus strain) | MIC (Streptococcus faecalis; Enterococcus faecalis, Table 5 organism 7 S. faecalis, 50% Hum. Serum) | MIC (Streptococcus faecalis; Enterococcus faecalis, Table 5 organism 8 S. faecalis, 50% Hum. Serum)
1.3 mg/kg: ED50 (S. faecalis)
0.4 to 0.8 µg/mL: MIC RANGE (Group B Strep.) | MIC RANGE (Streptococcus faecalis; Table 4, Strep. faecalis (12 strains))
0.4 to 6.3 µg/mL: MIC RANGE (Coag-neg. Staphylococci)
≤ 0.1 µg/mL: MIC ([3]; Table 5 organism 5 S. epidermidis, 50% Hum. Serum)
10 mg/kg: ED50 (S. haemolyticus)
0.8 to 1.6 µg/mL: MIC RANGE (JK Diptheroids)
0.04 to 0.8 µg/mL: MIC RANGE (Group A Strep.)
0.4 mg/kg: ED50 (S. aureus; S. aureus HH 127 (35 × LD50) i.p.)
20%: PERCENT SURVIVAL (STAPH. AUREUS HH 127; Table 7: 40 mg/kg, 4 hr preinfection, S.C.)
0.156 mg/kg: ED50 (STAPH. AUREUS HH 127; iv)
0.4 µg/mL: MIC50 (Group A Strep.; read-out: MIC50) | MIC50 (Streptococcus faecalis; Enterococcus faecalis)
50 µg/mL: MBC (Streptococcus faecalis; Enterococcus faecalis, read-out: MBC50)
10%: PERCENT SURVIVAL (STAPH. AUREUS HH 127; Table 8: 40 mg/kg (I.V.), 6 hr preinfection)
0.05 to 0.8 µg/mL: MIC RANGE (Viridans)
1.6 to 6.3 µg/mL: MIC RANGE (Staphylococcus aureus; Table 4, S. aureus (30 strains))
1.6 µg/mL: MIC50 (JK Diptheroids; read-out: MIC50) | MIC ([2]; Table 5 organism 6 S. saprophyticus, No Serum) | MIC ([2]; read-out: minimum inhibitory concentration, Table 2 test organism 13, Staphylococcus saprophyticus) | MIC ([3]; Table 5 organism 2 S. epidermidis, No Serum) | MIC ([3]; Table 5 organism 4 S. epidermidis, No Serum) | MIC ([3]; Table 5 organism 5 S. epidermidis, No Serum) | MIC ([3]; read-out: minimum inhibitory concentration, Table 1 test organism 14, S. epidermidis strain) | MIC ([3]; read-out: minimum inhibitory concentration, Table 1 test organism 16, S. epidermidis strain) | MIC ([3]; read-out: minimum inhibitory concentration, Table 2 test organism 6, S. epidermidis strain) | MIC ([3]; read-out: minimum inhibitory concentration, Table 2 test organism 8, S. epidermidis strain) | MIC ([3]; read-out: minimum inhibitory concentration, Table 2 test organism 12, S. epidermidis strain) | MIC ([3]; read-out: minimum inhibitory concentration, Table 2 test organism 14, S. epidermidis strain) | MIC50 (Staphylococcus aureus; Staphylococcus aureus) | MIC (Staphylococcus aureus; Staphylococcus aureus, Table 5 organism 1 S. aureus, 50% Mse. Serum) | MIC (Staphylococcus aureus; Staphylococcus aureus, Table 5 organism 1 S. aureus, No Serum) | MIC (Staphylococcus aureus; Staphylococcus aureus, read-out: minimum inhibitory concentration, Table 1 test organism 1, S. aureus strain) | MIC (Staphylococcus aureus; Staphylococcus aureus, read-out: minimum inhibitory concentration, Table 1 test organism 2, S. aureus strain) | MIC (Staphylococcus aureus; Staphylococcus aureus, read-out: minimum inhibitory concentration, Table 1 test organism 3, S. aureus strain) | MIC (Staphylococcus aureus; Staphylococcus aureus, read-out: minimum inhibitory concentration, Table 1 test organism 4, S. aureus strain) | MIC (Staphylococcus aureus; Staphylococcus aureus, read-out: minimum inhibitory concentration, Table 1 test organism 5, S. aureus strain) | MIC (Staphylococcus aureus; Staphylococcus aureus, read-out: minimum inhibitory concentration, Table 1 test organism 6, S. aureus strain) | MIC (Staphylococcus aureus; Staphylococcus aureus, read-out: minimum inhibitory concentration, Table 1 test organism 8, S. aureus strain) | MIC (Staphylococcus aureus; Staphylococcus aureus, read-out: minimum inhibitory concentration, Table 1 test organism 9, S. aureus strain) | MIC (Staphylococcus aureus; Staphylococcus aureus, read-out: minimum inhibitory concentration, Table 1 test organism 10, S. aureus strain) | MIC (Staphylococcus aureus; Staphylococcus aureus, read-out: minimum inhibitory concentration, Table 1 test organism 11, S. aureus strain) | MIC (Staphylococcus aureus; Staphylococcus aureus, read-out: minimum inhibitory concentration, Table 1 test organism 12, S. aureus strain) | MIC (Staphylococcus aureus; Staphylococcus aureus, read-out: minimum inhibitory concentration, Table 2 test organism 1, S. aureus strain) | MIC (Staphylococcus aureus; Staphylococcus aureus, read-out: minimum inhibitory concentration, Table 2 test organism 2, S. aureus strain) | MIC (Staphylococcus aureus; Staphylococcus aureus, read-out: minimum inhibitory concentration, Table 2 test organism 3, S. aureus strain) | MIC (Staphylococcus aureus; Staphylococcus aureus, read-out: minimum inhibitory concentration, Table 2 test organism 4, S. aureus strain) | MIC (Staphylococcus aureus; Staphylococcus aureus, read-out: minimum inhibitory concentration, Table 2 test organism 5, S. aureus strain) | MIC (Streptococcus faecalis; Enterococcus faecalis, Table 5 organism 7 S. faecalis, No Serum) | MIC (Streptococcus faecalis; Enterococcus faecalis, Table 5 organism 8 S. faecalis, No Serum) | MIC (Streptococcus faecalis; Enterococcus faecalis, read-out: minimum inhibitory concentration, Table 2 test organism 9, Streptococcus faecalis strain) | MIC (Streptococcus faecalis; Enterococcus faecalis, read-out: minimum inhibitory concentration, Table 2 test organism 10, Streptococcus faecalis strain)
6.3 µg/mL: MIC ([1]; Table 5 organism 3 S. haemolyticus, 50% Mse. Serum) | MIC ([2]; Table 5 organism 6 S. saprophyticus, 50% Mse. Serum) | MIC (Streptococcus faecalis; Enterococcus faecalis, Table 5 organism 7 S. faecalis, 50% Mse. Serum) | MIC (Streptococcus faecalis; Enterococcus faecalis, Table 5 organism 8 S. faecalis, 50% Mse. Serum)
